Test results from patent publication US20230117324A1, “OXAZINE MONOACYLGLYCEROL LIPASE (MAGL) INHIBITORS” (Hoffmann-La Roche Inc., priority 2018, published 2023).
pIC50: −log10 of the molar value.

molecular target: T1, MAGL (Homo sapiens, UniProt Q99685); experiment: MAGL inhibition, 2-AG assay (hydrolysis of 2-arachidonoylglycerol, arachidonic acid by mass spectrometry); type: biochemical; settings: 2-AG assay (footnote [b])
T1 sequence (Q99685 1-303): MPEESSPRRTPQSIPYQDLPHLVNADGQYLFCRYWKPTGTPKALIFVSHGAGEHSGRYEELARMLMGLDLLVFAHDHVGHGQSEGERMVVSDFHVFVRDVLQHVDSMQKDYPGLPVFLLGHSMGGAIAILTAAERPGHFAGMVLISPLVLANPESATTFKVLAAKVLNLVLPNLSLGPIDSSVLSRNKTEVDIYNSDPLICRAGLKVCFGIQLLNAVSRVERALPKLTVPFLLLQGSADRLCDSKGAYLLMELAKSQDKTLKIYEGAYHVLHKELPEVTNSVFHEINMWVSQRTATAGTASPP
Procedure, shortened: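 Hydrolysis of 8 μM 2-arachidonoylglycerol by […] was run for 30 min at RT after a 15 min compound preincubation, in Tris/EDTA/Tween buffer. Test compounds spanned […]. The product was measured by online SPE-MS/MS (transitions 303.1→259.1 and 311.1→267.0), and activity was derived from the arachidonic acid/d8-arachidonic acid signal ratio.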

`O=C1CO[C@H]2CCN(C(=O)N3CC(c4ccc(-c5ccc(F)cc5Cl)cc4)C3)C[C@H]2N1` [Example 134, (4aR,8aS)-6-[3-[4-(2-Chloro-4-fluoro-phenyl)phenyl]azetidine-1-carbonyl]-4,4a,5,7,8,8a-hexahydropyrido[4,3-b][1,4]oxazin-3-one] and `O=C1CO[C@H]2CCN(C(=O)N3CC(c4ccc(-c5ccccc5Cl)cc4)C3)C[C@H]2N1` [Example 112, (4aR,8aS)-6-(3-(2′-Chloro-[1,1′-biphenyl]-4-yl)azetidine-1-carbonyl)hexahydro-2H-pyrido[4,3-b][1,4]oxazin-3(4H)-one] are the same in pIC50: 10.00 for the first, 10.00 for the second.

Compared with `CC(Oc1ccc(C(F)(F)F)cc1)C1CN(C(=O)N2CC[C@@H]3OCC(=O)N[C@@H]3C2)C1` (stereo partly drawn) [Example 92, (4aR,8aS)-6-(3-(1-(4-(Trifluoromethyl)phenoxy)ethyl)azetidine-1-carbonyl)hexahydro-2H-pyrido[4,3-b][1,4]oxazin-3(4H)-one], `CC(Oc1ccc(C(F)(F)F)cc1F)C1CN(C(=O)N2CC[C@@H]3OCC(=O)N[C@@H]3C2)C1` (single isomer, unassigned) [Example 96, (4aR,8aS)-6-(3-((R or S)-1-(2-Fluoro-4-(trifluoromethyl)phenoxy)ethyl)azetidine-1-carbonyl)hexahydro-2H-pyrido[4,3-b][1,4]oxazin-3(4H)-one] is 0.34 log units lower in pIC50: 7.70 for the first, 7.36 for the second. The first is the more potent here.

Compared with `O=C1CO[C@H]2CCN(C(=O)N3CC(c4ccc(N5CCCCC5)cc4)C3)C[C@H]2N1` [Example 196, (4aR,8aS)-6-[3-[4-(1-Piperidyl)phenyl]azetidine-1-carbonyl]-4,4a,5,7,8,8a-hexahydropyrido[4,3-b][1,4]oxazin-3-one], `CC1CN(c2ccc(C3CN(C(=O)N4CC[C@@H]5OCC(=O)N[C@@H]5C4)C3)cc2)C1` [Example 151, (4aR,8aS)-6-(3-(4-(3-Methylazetidin-1-yl)phenyl)azetidine-1-carbonyl)hexahydro-2H-pyrido[4,3-b][1,4]oxazin-3(4H)-one] is 0.40 log units lower in pIC50: 8.70 for the first, 8.30 for the second. The first is the more potent here.

Compared with `COc1cccc(C(c2ccc(F)cc2)C2CCN(C(=O)N3CC[C@@H]4OCC(=O)N[C@@H]4C3)CC2)c1` (single isomer, unassigned) [Example 62, (4aR,8aS)-6-[4-[(S or R)-(4-Fluorophenyl)-(3-methoxyphenyl)methyl]piperidine-1-carbonyl]-4,4a,5,7,8,8a-hexahydropyrido[4,3-b][1,4]oxazin-3-one], `COc1ccc(C(c2ccc(F)cc2)C2CCN(C(=O)N3CC[C@@H]4OCC(=O)N[C@@H]4C3)CC2)cc1` (single isomer, unassigned) [Example 71, (4aR,8aS)-6-(4-((S or R)-(4-Fluorophenyl)(4-methoxyphenyl)methyl)piperidine-1-carbonyl)hexahydro-2H-pyrido[4,3-b][1,4]oxazin-3(4H)-one] is 0.30 log units higher in pIC50: 9.40 for the first, 9.70 for the second.

First: O=C1CO[C@H]2CCN(C(=O)N3CC(C(O)(c4ccc(F)cc4)c4ccc(F)cc4)C3)C[C@H]2N1 [Example 54, (4aR,8aS)-6-(3-(Bis(4-fluorophenyl)(hydroxy)methyl)azetidine-1-carbonyl)hexahydro-2H-pyrido[4,3-b][1,4]oxazin-3(4H)-one]
Second: NC(=O)c1ccccc1-c1ccc(C2CN(C(=O)N3CC[C@@H]4OCC(=O)N[C@@H]4C3)C2)cc1 [Example 130, 2-[4-[1-[(4aR,8aS)-3-Oxo-4,4a,5,7,8,8a-hexahydropyrido[4,3-b][1,4]oxazine-6-carbonyl]azetidin-3-yl]phenyl]benzamide]
The pIC50 of the first is 2.31 log units lower: 6.09 for the first, 8.40 for the second. The second is the more potent here.

Compared with `O=C1CO[C@H]2CCN(C(=O)N3CC(c4ccc(N5CC(F)(F)C5)c(Cl)c4)C3)C[C@H]2N1` [Example 226, (4aR,8aS)-6-(3-(3-Chloro-4-(3,3-difluoroazetidin-1-yl)phenyl)azetidine-1-carbonyl)hexahydro-2H-pyrido[4,3-b][1,4]oxazin-3(4H)-one], `CC(OC1CN(C(=O)N2CC[C@@H]3OCC(=O)N[C@@H]3C2)C1)c1ccc(F)cc1Cl` (single isomer, unassigned) [Example 117, (4aR,8aS)-6-[3-(R or S)-[1-(2-Chloro-4-fluoro-phenyl)ethoxy]azetidine-1-carbonyl]-4,4a,5,7,8,8a-hexahydropyrido[4,3-b][1,4]oxazin-3-one] is 0.20 log units lower in pIC50: 7.72 for the first, 7.52 for the second.

Compared with `CC(C)(C)Cc1ccc(C2CN(C(=O)N3CC[C@@H]4OCC(=O)N[C@@H]4C3)C2)cc1` [Example 261, (4aR,8aS)-6-[3-[4-(2,2-Dimethylpropyl)phenyl]azetidine-1-carbonyl]-4,4a,5,7,8,8a-hexahydropyrido[4,3-b][1,4]oxazin-3-one], `COC(=O)C(C)(C)c1ccc(C2CN(C(=O)N3CC[C@@H]4OCC(=O)N[C@@H]4C3)C2)cc1` [Example 234, Methyl 2-methyl-2-(4-(1-((4aR,8aS)-3-Oxooctahydro-2H-pyrido[4,3-b][1,4]oxazine-6-carbonyl)azetidin-3-yl)phenyl)propanoate] is 1.45 log units lower in pIC50: 10.15 for the first, 8.70 for the second.

First: CS(=O)(=O)c1cccc(C(c2cccnc2)C2CCN(C(=O)N3CC[C@@H]4OCC(=O)N[C@@H]4C3)CC2)c1 (single isomer, unassigned) [Example 175, (4aR,8aS)-6-[4-[(R or S)-(3-methylsulfonylphenyl)-(3-pyridyl)methyl]piperidine-1-carbonyl]-4,4a,5,7,8,8a-hexahydropyrido[4,3-b][1,4]oxazin-3-one]
Second: O=C1CO[C@H]2CCN(C(=O)N3CCC(C(c4ccccc4)c4cccc(OCCF)c4)CC3)C[C@H]2N1 (single isomer, unassigned) [Example 108, (4aR,8aS)-6-(4-((R or S)-(3-(2-Fluoroethoxy)phenyl)(phenyl)methyl)piperidine-1-carbonyl)hexahydro-2H-pyrido[4,3-b][1,4]oxazin-3(4H)-one]
The pIC50 of the first is 2.46 log units lower: 6.94 for the first, 9.40 for the second.

`O=C1CO[C@H]2CCN(C(=O)N3CCC(c4cn(CCO)c5ccc(Cl)cc45)CC3)C[C@@H]2N1` [Example 269, (4aS,8aS)-6-[4-[5-Chloro-1-(2-hydroxyethyl)indol-3-yl]piperidine-1-carbonyl]-4,4a,5,7,8,8a-hexahydropyrido[4,3-b][1,4]oxazin-3-one] and `O=C1CO[C@H]2CCN(C(=O)N3CCC(c4ccnc5c4CCCC5)CC3)C[C@H]2N1` [Example 107, (4aR,8aS)-6-(4-(5,6,7,8-Tetrahydroquinolin-4-yl)piperidine-1-carbonyl)hexahydro-2H-pyrido[4,3-b][1,4]oxazin-3(4H)-one] are within 0.2 log units of each other in pIC50: 6.28 for the first, 6.24 for the second.

`COc1cc(CC(F)(F)F)ccc1C1CN(C(=O)N2CC[C@@H]3OCC(=O)N[C@@H]3C2)C1` [Example 277, (4aR,8aS)-6-[3-[2-Methoxy-4-(2,2,2-trifluoroethyl)phenyl]azetidine-1-carbonyl]-4,4a,5,7,8,8a-hexahydropyrido[4,3-b][1,4]oxazin-3-one] and `COc1cc(C2CN(C(=O)N3CC[C@@H]4OCC(=O)N[C@@H]4C3)C2)ccc1C(C)(C)C` [Example 240, (4aR,8aS)-6-(3-(4-(tert-Butyl)-3-methoxyphenyl)azetidine-1-carbonyl)hexahydro-2H-pyrido[4,3-b][1,4]oxazin-3(4H)-one] are the same in pIC50: 8.70 for the first, 8.70 for the second.

Going from `O=C1CO[C@H]2CCN(C(=O)N3CC(C(OCC(F)(F)F)c4ccc(F)cc4)C3)C[C@H]2N1` (single isomer, unassigned) [Example 105, (4aR,8aS)-6-[3-(S or R)-[(4-Fluorophenyl)-(2,2,2-trifluoroethoxy)methyl]azetidine-1-carbonyl]-4,4a,5,7,8,8a-hexahydropyrido[4,3-b][1,4]oxazin-3-one] to `O=C1CO[C@H]2CCN(C(=O)N3CCC(C(OCC(F)(F)F)c4ccc(F)cc4)CC3)C[C@H]2N1` (single isomer, unassigned) [Example 58, (4aR,8aS)-6-(4-((S or R)-(4-Fluorophenyl)(2,2,2-trifluoroethoxy)methyl)piperidine-1-carbonyl)hexahydro-2H-pyrido[4,3-b][1,4]oxazin-3(4H)-one], the pIC50 rises from 6.36 to 8.15 (1.79 log units).

First: O=C1CO[C@H]2CCN(C(=O)N3CC(c4ccc(N5CC(OCC(F)(F)F)C5)cc4)C3)C[C@H]2N1 [Example 172, (4aR,8aS)-6-(3-(4-(3-(2,2,2-Trifluoroethoxy)azetidin-1-yl)phenyl)azetidine-1-carbonyl)hexahydro-2H-pyrido[4,3-b][1,4]oxazin-3(4H)-one]
Second: CC(Oc1ccc(C2CN(C(=O)N3CC[C@@H]4OCC(=O)N[C@@H]4C3)C2)cc1)C(F)(F)F (single isomer, unassigned) [Example 246, (4aR,8aS)-6-[3-(R or S)-[4-(2,2,2-Trifluoro-1-methyl-ethoxy)phenyl]azetidine-1-carbonyl]-4,4a,5,7,8,8a-hexahydropyrido[4,3-b][1,4]oxazin-3-one]
The pIC50 of the first is 0.60 log units lower: 8.40 for the first, 9.00 for the second. The second is the more potent here.

Compared with `O=C1CO[C@H]2CCN(C(=O)N3CCC(C(c4ccccc4)c4ccc(OCCF)cc4)CC3)C[C@H]2N1` (single isomer, unassigned) [Example 70, (4aR,8aS)-6-[4-[(R or S)-[4-(2-Fluoroethoxy)phenyl]-phenylmethyl]piperidine-1-carbonyl]-4,4a,5,7,8,8a-hexahydropyrido[4,3-b][1,4]oxazin-3-one], `Cc1cccc(-c2ccc(C3CN(C(=O)N4CC[C@@H]5OCC(=O)N[C@@H]5C4)C3)cc2)c1` [Example 143, (4aR,8aS)-6-(3-(3′-Methyl-[1,1′-biphenyl]-4-yl)azetidine-1-carbonyl)hexahydro-2H-pyrido[4,3-b][1,4]oxazin-3(4H)-one] is 0.60 log units higher in pIC50: 8.40 for the first, 9.00 for the second. The second is the more potent here.
